Measured values taken from patent US11485728B2, “Small molecules for the treatment of autoimmune diseases and cancer” (Athos Therapeutics, Inc., priority 2020, dated 2022).
pIC50: −log10 of the molar value.

Key:
CYP2C9 = molecular target: T1, CYP2C9 (Homo sapiens, UniProt P11712); assay: CYP-direct inhibition, CYP2C9; assay type: in vitro ADME
T1 construct: from tissue; host or cells: pooled human liver microsomes
Method: Many drugs inhibit cytochrome P450 enzymes to cause clinically significant changes in the pharmacokinetics of other drugs. In vitro cytochrome P450 inhibition, can provide crucial information in evaluating potential clinical drug-drug interactions and is useful for focusing in vivo tests to areas of concern. The cytochrome P450 inhibition assay was developed by preparing a working cocktail solution consisting of six probe substrates 10 μM ethoxy-resorufin (CYP1A2), 100 μM rosiglitazone (CYP2C8), 50 μM diclofenac (CYP2C9), 300 μM S-mephenytoin (CYP2C19), 50 μM dextromethorphan (CYP2D6), and 20 μM midazolam (CYP3A4). A mixture solution consists of 140 uL of 0.286 mg/mL of pooled human liver microsome working solution and 20 uL working solutions of test articles, standard control inhibitors, or positive control placebo and 20 uL of substrate cocktail mixture working solution was prepared. The mixture solution was pre-warm in a gentle shaking bath at 37±2° C. for 5 minutes. The enzymatic reaction started by adding 20 uL of NRS working solution to the mixture solution and incubated for 10 minutes at 37±2° C. To stop the reaction, an addition of 400 μL cold stop solution (acetonitrile containing 50 ng/mL Tolbutamide as an internal standard (I.Std.) was added to the mixture solution. The final concentration of test article, inhibitors, substrates, and cofactors are noted in Table 0.1 below. Two individual samples were prepared for each test compound. The extracted samples were vortexed and then centrifuged at 4500 rpm for 7 minutes using Eppendorf Centrifuge 5910R. 200 uL of supernatant was diluting with 200 uL of 50% Methanol into 96-DW plate for LC/MS/MS analysis
Concentration-response plots are used to determine the effects of an inhibitor on an enzymatic reaction. A typical concentration-response plot provides fractional activity (Y axis) is plotted as a function of log inhibitor concentration (X axis). The data are fitted using a standard Sigmoidal dose-response equation which is also called a […] logistic equation. The concentration of compound that results in 50% inhibition of maximal activity is termed as the IC50 (inhibitor concentration yielding 50% inhibition). IC50 value is calculated using Prism GraphPad software, version 9. […].
Cytochrome P450 inhibition of a drug is a key factor in determining pharmacokinetic drug-drug interactions. The objective of this study was to evaluate the inhibition potential of G9a inhibitors on six (6) major human cytochrome P450 enzymes, including CYP1A2, CYP2C8, CYP2C9, CYP2C19, CYP2D6, and CYP3A4. Inhibition was determined by using a substrate cocktail and analyzing the rate of specific metabolites formation. The cytochrome P450 inhibition assay was developed using a cocktail consisting of six (6) probe substrates ethoxy-resorufin (CYP1A2), rosiglitazone (CYP2C8), diclofenac (CYP2C9), S-mephenytoin (CYP2C19), dextromethorphan (CYP2D6), and midazolam (CYP3A4). The cocktail was incubated in human liver microsome with NADPH regenerating system (NRS) in a shaking bath at 37±2° C. The formation of specific metabolites was monitored by LC/MS/MS. Test compound was added to the cocktail-liver microsome mixture at varying concentrations and its effect on cytochrome P450 activity was determined by analyzing the rate of specific metabolite formation. The percent inhibition was calculated and plotted with reference to the concentration, and the IC50 value for inhibition was derived by fitting the data with a using log(inhibitor) vs. normalized response with variable slope least squares fit by Graphpad Prism® software. […].

[1] = In-vitro half-life in mouse liver microsomes; assay type: in vitro ADME; conditions: Mouse liver microsomes 0.5 mg/mL; 1 μg/mL drug; NRS; read-out: Metabolic Half-life
Method: In each of the species (human, rat, mouse) of liver matrix to be tested, a working concentration of 2 μg/mL was prepared of each test article from the 0.5 mg/mL DMSO stock solution by adding 3 μL of 0.5 mg/mL test article stock solution to 747 μL of the 1 mg/mL liver matrix. Incubation was performed at 37±2° C. with gentle, continuous mixing in shaking water bath in 2.0 mL-well capacity 96-Deepwell plates (96-DWP). Samples were retrieved in duplicate at the following time points: 0, 5, 10, 15, 30 and 60 minutes. The final mixture contained 1 μg/mL of drug and 0.5 mg/mL of liver matrix. First, 50 μL of test articles in liver matrix was added to the 96-DWP and pre-warmed the mixture in the 96-DWP for 2 minutes in the 37° C. water bath. The enzymatic reaction was started by the addition of 50 μL of the corresponding 2× NADPH regenerating system (NRS) cofactor solution to all sample wells and stopped by the addition of 300 μL of stop solution (acetonitrile containing 10 ng/mL Tolbutamide as an internal standard (I.Std.). The samples were agitated for 10 minutes and then centrifuged for 20 minutes at 4500 rpm. 25 μL of supernatant was diluted with 475 μL acetonitrile containing I. Std. into a new 96-DWPs for LC-MS/MS analysis.
Half-life calculations were generated and calculated by Graphpad Prism® software. The half-life of test compound was calculated based on the first-order reaction kinetics. The data was transformed to linear regression (y=log(y) where “y” axis represents the % compound remaining at any given time with respect to time 0 minutes; “x” axis represents time in minutes) in order to calculate the half-life.
A comparison of metabolic stability in time-course incubation experiments in varying species of liver can provide information of pharmacokinetic properties of drugs attributable to species-related differences in hepatic metabolism. The results of these experiments often assist in further applications such as assessing in vitro metabolite profiling and choosing relevant species for toxicology studies based on similarities relative to the metabolic stability to the human profile. For these experiments, the test compound was tested in parallel with a positive control, Dasatinab, in an enzymatic reaction solution of each species (human and rat) of liver microsomes containing a NADPH regenerating system (NRS). The final mixture contained 1 μg/mL of drug and 0.5 mg/mL of liver matrix. Incubations were performed at 37±2° C. with gentle, continuous mixing in shaking water bath in 96-Deep well plates. The stability of the test compound is monitored using fast, specific and sensitive LC/MS/MS analysis.

T1 sequence (P11712 whole entry): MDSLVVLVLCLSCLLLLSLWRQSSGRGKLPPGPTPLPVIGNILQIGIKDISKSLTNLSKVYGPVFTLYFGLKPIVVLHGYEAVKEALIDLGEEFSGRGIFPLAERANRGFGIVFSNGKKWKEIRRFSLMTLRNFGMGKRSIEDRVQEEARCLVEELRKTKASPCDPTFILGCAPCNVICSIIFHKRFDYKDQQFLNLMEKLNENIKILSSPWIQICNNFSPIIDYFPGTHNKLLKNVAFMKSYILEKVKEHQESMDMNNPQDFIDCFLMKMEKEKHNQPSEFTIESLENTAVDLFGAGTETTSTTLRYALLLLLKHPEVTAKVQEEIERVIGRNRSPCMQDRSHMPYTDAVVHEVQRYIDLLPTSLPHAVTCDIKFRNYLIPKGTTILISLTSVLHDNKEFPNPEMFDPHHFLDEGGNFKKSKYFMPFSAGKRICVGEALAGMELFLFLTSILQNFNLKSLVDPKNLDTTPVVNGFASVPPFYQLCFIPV

SMILES	pIC50 (CYP2C9)	half-life at 1 μg/mL [1]
COc1cc2c(N[C@@H]3CCCNC3)nc(N3CCCC3)nc2cc1OCCCN1CCCC1 [Compound 159, (R)-6-methoxy-N-(piperidin-3-yl)-2-(pyrrolidin-1-yl)-7-(3-(pyrrolidin-1-yl)propoxy)quinazolin-4-amine]	< 4.00	0.655 h
COc1cc2c(NC3CCOCC3)nc(N3CCOCC3)nc2cc1OCCCN1CCCC1 [Compound 195, 6-methoxy-2-morpholino-7-(3-(pyrrolidin-1-yl)propoxy)-N-(tetrahydro-2H-pyran-4-yl)quinazolin-4-amine]	< 4.00	> 1 h
COc1cc2c(NC3CCOCC3)nc(N3CCS(=O)(=O)CC3)nc2cc1OCCCN1CCCC1 [Compound 196, 4-(6-methoxy-7-(3-(pyrrolidin-1-yl)propoxy)-4-((tetrahydro-2H-pyran-4-yl)amino)quinazolin-2-yl)thiomorpholine 1,1-dioxide]	< 4.00	> 1 h
COc1cc2c(NC3CCS(=O)(=O)CC3)nc(N3CCC(F)(F)CC3)nc2cc1C#CCN1CCCC1 [Compound 248, 4-((2-(4,4-difluoropiperidin-1-yl)-6-methoxy-7-(3-(pyrrolidin-1-yl)prop-1-yn-1-yl)quinazolin-4-yl)amino)tetrahydro-2H-thiopyran 1,1-dioxide]	< 4.00	> 1 h
COc1cc2c(NC3CCN(C(C)C)CC3)nc(N3CCC(F)(F)CC3)nc2cc1OCCCN1CCCC1 [Compound 400, 2-(4,4-difluoropiperidin-1-yl)-N-(1-isopropylpiperidin-4-yl)-6-methoxy-7-(3-(pyrrolidin-1-yl)propoxy)quinazolin-4-amine, reference compound]	< 4.00	> 1 h

Now from value to compound:

pIC50 (CYP2C9)	half-life at 1 μg/mL [1]	SMILES
< 4.00	> 1 h	COc1cc2c(NC3CCOCC3)nc(N3CCCC3)nc2cc1OCCCN1CCCC1 [Compound 164, 6-methoxy-2-(pyrrolidin-1-yl)-7-(3-(pyrrolidin-1-yl)propoxy)-N-(tetrahydro-2H-pyran-4-yl)quinazolin-4-amine]
< 4.00	> 1 h	COc1cc2c(NC3CCOCC3)nc(N3CCC3)nc2cc1OCCCN1CCCC1 [Compound 174, 2-(azetidin-1-yl)-6-methoxy-7-(3-(pyrrolidin-1-yl)propoxy)-N-(tetrahydro-2H-pyran-4-yl)quinazolin-4-amine]
< 4.00	> 1 h	COc1cc2c(NC3CCN(C(C)C)CC3)nc(N3CCC3)nc2cc1OCCCN1CCCC1 [Compound 234, 2-(azetidin-1-yl)-N-(1-isopropylpiperidin-4-yl)-6-methoxy-7-(3-(pyrrolidin-1-yl)propoxy)quinazolin-4-amine]
< 4.00	> 1 h	COc1cc2c(NC3CCN(C(C)C)CC3)nc(C#N)nc2cc1OCCCN1CCCC1 [Compound 235, 4-((1-isopropylpiperidin-4-yl)amino)-6-methoxy-7-(3-(pyrrolidin-1-yl)propoxy)quinazoline-2-carbonitrile]
< 4.00	0.38 h	COc1cc2c(NC3CCOCC3)nc(N3CCN(C)CC3)nc2cc1OCCCN1CCCC1 [Compound 236, 6-methoxy-2-(4-methylpiperazin-1-yl)-7-(3-(pyrrolidin-1-yl)propoxy)-N-(tetrahydro-2H-pyran-4-yl)quinazolin-4-amine]
< 4.00	0.44 h	COc1cc2c(NC3CCOCC3)nc(N3CCCN(C)CC3)nc2cc1OCCCN1CCCC1 [Compound 237, 6-methoxy-2-(4-methyl-1,4-diazepan-1-yl)-7-(3-(pyrrolidin-1-yl)propoxy)-N-(tetrahydro-2H-pyran-4-yl)quinazolin-4-amine]
